US10857193B2, “Extract formulation of Opuntia ficus indica” (FINZELBERG GMBH & CO. KG, priority 2007, dated 2020)

Test system: blood glucose
Assay: Oral glucose tolerance test (oGTT), hypoglycaemic effect in an animal model
Type: in vivo, Wistar rats
Conditions: oGTT in rats, result in words; FIG. 3 expressed as percent AUC vs control, n=5-6 per group
Description: A standard means of testing extracts or novel chemical compounds for effects on blood sugar levels is the oGTT (Verspohl, 2002). This involves administering the extract, a blind control or a known anti-diabetic to different groups of a rat population and administering an […] dose of glucose to a sub-group of each group. The extracts were administered 30 minutes before the glucose. Blood samples were taken sublingually 0, 15, 30, 60 and 120 minutes after glucose administration or at 0, 30, 60, 120 and 180 minutes for baseline blood sugar levels. The sampling schedule described served both to track the effect of the extracts on baseline blood sugar levels over a longer period and to track the effect on blood sugar levels following a glucose load.
All of the tested extracts, the blind control and the glibenclamide reference oral anti-diabetic contained propylene glycol as a solubilising agent and were administered orally via a feeding tube. […]
The samples were centrifuged at 8600 U/min for 10 minutes. The plasma supernatant was then analysed using an autoanalyser (Merck, Darmstadt). […]
Concentrations and kinetic data were analysed in Graphpad 4.0 (San Diego, USA) using one-way variance analysis (ANOVA) and the Newman-Keuls multiple comparison test. The area under the curve (AUC) was determined using the trapezoidal method without extrapolation beyond the final sampling point.

Question: For `COc1ccc(Cl)cc1C(=O)NCCc1ccc(S(=O)(=O)NC(=O)NC2CCCCC2)cc1` [glibenclamide, Glibenclamide], which hypoglycaemic effect is on record?
Answer: hypoglycaemic effect
